Data taken from PMC7951571 (Heliyon, 2021).
Like-named read-outs stand apart in the source and are kept apart here. Residues, ends and D or L forms follow the SMILES beside them. *: point of attachment. Cbz = O=C(OCc1ccccc1)*; CH2F = FC*

Key:
[1] = biological target: recombinant human ACE2 (rhACE2) (Homo sapiens, UniProt Q9BYF1); experiment: ACE2 inhibitor screening assay; assay type: biochemical
[2] = biological target: rhACE2 - SARS-CoV-2 Spike (RBD) protein interaction (Homo sapiens, UniProt Q9BYF1); experiment: biochemical; assay type: binding, human; SARS-CoV-2
Sequence of rhACE2 - SARS-CoV-2 Spike (RBD) protein interaction (Q9BYF1 18-740): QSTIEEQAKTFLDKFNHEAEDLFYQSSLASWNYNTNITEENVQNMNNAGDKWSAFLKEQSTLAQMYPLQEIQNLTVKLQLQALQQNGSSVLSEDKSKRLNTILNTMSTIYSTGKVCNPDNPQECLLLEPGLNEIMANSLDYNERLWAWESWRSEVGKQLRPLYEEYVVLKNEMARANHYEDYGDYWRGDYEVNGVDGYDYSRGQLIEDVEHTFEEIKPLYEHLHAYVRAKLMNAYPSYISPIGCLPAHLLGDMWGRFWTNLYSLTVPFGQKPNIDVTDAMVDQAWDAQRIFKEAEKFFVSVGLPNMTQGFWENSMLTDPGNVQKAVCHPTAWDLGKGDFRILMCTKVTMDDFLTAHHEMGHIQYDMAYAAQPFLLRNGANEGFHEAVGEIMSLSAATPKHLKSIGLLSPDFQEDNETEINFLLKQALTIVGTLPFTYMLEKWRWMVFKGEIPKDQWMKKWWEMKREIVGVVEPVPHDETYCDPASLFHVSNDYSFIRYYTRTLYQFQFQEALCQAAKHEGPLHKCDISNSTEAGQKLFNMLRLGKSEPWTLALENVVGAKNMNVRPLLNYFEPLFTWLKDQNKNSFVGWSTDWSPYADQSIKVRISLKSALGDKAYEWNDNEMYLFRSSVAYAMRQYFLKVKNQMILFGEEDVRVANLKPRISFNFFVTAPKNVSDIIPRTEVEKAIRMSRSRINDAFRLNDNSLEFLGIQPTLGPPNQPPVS

Vero E6 cells = settings: for Concentration at Maximum % Viability: monkey
in vitro = settings: African green monkey
SARS-CoV-2 USA_WA1/2020 = assay type: cell-based
[3] = tested on: ACE2-Spike interaction (SARS-CoV, SARS-CoV2, NL63S); settings: cited from earlier work
[4] = Spike (RBD)-ACE2 Interaction Assay IC50_1
[5] = Spike (RBD)-ACE2 Interaction Assay IC50_2

Sequence of recombinant human ACE2 (rhACE2) (Q9BYF1 18-805): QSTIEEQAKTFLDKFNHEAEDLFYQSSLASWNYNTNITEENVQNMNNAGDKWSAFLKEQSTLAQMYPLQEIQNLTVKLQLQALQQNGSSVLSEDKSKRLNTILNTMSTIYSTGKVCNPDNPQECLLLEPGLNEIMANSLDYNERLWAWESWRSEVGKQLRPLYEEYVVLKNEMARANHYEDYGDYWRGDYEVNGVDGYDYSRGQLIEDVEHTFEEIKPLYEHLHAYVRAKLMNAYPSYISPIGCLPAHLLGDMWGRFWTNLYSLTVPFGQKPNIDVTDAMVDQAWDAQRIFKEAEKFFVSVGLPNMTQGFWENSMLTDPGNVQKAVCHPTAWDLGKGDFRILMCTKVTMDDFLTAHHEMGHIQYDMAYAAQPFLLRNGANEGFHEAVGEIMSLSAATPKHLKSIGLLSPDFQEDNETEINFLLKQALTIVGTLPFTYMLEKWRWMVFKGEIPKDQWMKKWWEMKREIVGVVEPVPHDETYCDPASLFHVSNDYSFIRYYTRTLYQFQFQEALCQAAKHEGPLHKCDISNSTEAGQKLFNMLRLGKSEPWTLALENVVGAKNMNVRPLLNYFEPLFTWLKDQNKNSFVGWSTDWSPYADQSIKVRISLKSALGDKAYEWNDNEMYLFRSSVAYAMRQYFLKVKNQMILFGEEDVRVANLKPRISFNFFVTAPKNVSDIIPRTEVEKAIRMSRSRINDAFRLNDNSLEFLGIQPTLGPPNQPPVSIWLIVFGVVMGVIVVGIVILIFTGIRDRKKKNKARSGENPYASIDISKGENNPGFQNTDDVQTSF

Oc1c(Br)cc(Cl)c2cccnc12 [CLBQ14, 7-bromo-5-chloro-8-hydroxyquinoline]
IC50 [1]: 5.55 µM | IC50 [2, 4]: 2.76 µM | IC50 [2, 5]: 3.06 µM | Concentration at Minimum % Viability (Vero E6 cells; African green monkey): 15000 nM | Concentration at Maximum % Viability (Vero E6 cells): 120 nM | CC50 (in vitro): > 30 µM | viability (in vitro; Maximum Viability (%)): 108% | viability (in vitro; Minimum Viability (%)): 53.5%

Oc1c(Cl)cc(Cl)c2cccnc12 [CLCQ, 5,7-dichloro-8-hydroxyquinoline]
IC50 [1]: < 10 µM | IC50 [2, 4]: 1.74 µM | IC50 [2, 5]: 1.91 µM | Concentration at Minimum % Viability (Vero E6 cells; African green monkey): 15000 nM | Concentration at Maximum % Viability (Vero E6 cells): 60 nM | CC50 (in vitro): > 30 µM | viability (in vitro; Maximum Viability (%)): 102% | viability (in vitro; Minimum Viability (%)): 60.8%

Oc1c(I)cc(Cl)c2cccnc12 [CLQ, 5-chloro-7-iodo-8-quinolinol]
IC50 [2, 4]: 0.85 µM | Concentration at Minimum % Viability (Vero E6 cells; African green monkey): 30000 nM | Concentration at Maximum % Viability (Vero E6 cells): 230 nM | CC50 (in vitro): > 30 µM | viability (in vitro; Maximum Viability (%)): 106% | viability (in vitro; Minimum Viability (%)): 61.8%

CC(C)C[C@H](NC(=O)OCc1ccccc1)C(=O)N[C@@H](CC(C)C)C(=O)N[C@@H](Cc1ccc(O)cc1)C(=O)CF [Calpain Inhibitor IV] (Cbz-Leu-Leu-Tyr-CH2F)
Maximum Inhibition (%) (SARS-CoV-2 USA_WA1/2020): 95.75% | IC50 (SARS-CoV-2 USA_WA1/2020; read-out: IC50, SARS-CoV-2 induced CPE): 0.41 µM | CC50 (Vero E6 cells): > 7.17 µM | Concentration at Minimum % Viability (Vero E6 cells): 3590 nM | Maximum Viability (%) (Vero E6 cells): 104.99% | Minimum Viability (%) (Vero E6 cells): 98.29% | Concentration at Maximum % Viability (Vero E6 cells): 220 nM

CCN(CC)CCCC(C)Nc1ccnc2cc(Cl)ccc12 (stereo not shown) [Chloroquine]
Maximum Inhibition (%) (SARS-CoV-2 USA_WA1/2020): 111.08% | Concentration at Minimum % Viability (Vero E6 cells; African green monkey): 15000 nM | Concentration at Maximum % Viability (Vero E6 cells): 60 nM | CC50 (in vitro): > 30 µM | viability (in vitro; Maximum Viability (%)): 107% | viability (in vitro; Minimum Viability (%)): 95.6%

CCOC(=O)[C@H]1O[C@@H]1C(=O)N[C@@H](CC(C)C)C(=O)NCCC(C)C [E64d (Aloxistatin), Aloxistatin]
Maximum Inhibition (%) (SARS-CoV-2 USA_WA1/2020): 98.55% | Concentration at Minimum % Viability (Vero E6 cells; African green monkey): 15000 nM | Concentration at Maximum % Viability (Vero E6 cells): 120 nM | CC50 (in vitro): > 30 µM | viability (in vitro; Maximum Viability (%)): 113% | viability (in vitro; Minimum Viability (%)): 100%

CCN(CCO)CCCC(C)Nc1ccnc2cc(Cl)ccc12 (stereo not shown) [Hydroxychloroquine]
Maximum Inhibition (%) (SARS-CoV-2 USA_WA1/2020): 93.14% | Concentration at Minimum % Viability (Vero E6 cells; African green monkey): 3750 nM | Concentration at Maximum % Viability (Vero E6 cells): 60 nM | CC50 (in vitro): > 30 µM | viability (in vitro; Maximum Viability (%)): 104% | viability (in vitro; Minimum Viability (%)): 96.9%

CC(C)C[C@H](N[C@@H](Cc1cncn1Cc1cc(Cl)cc(Cl)c1)C(=O)O)C(=O)O [MLN-4760, (S,S)-2-{1-Carboxy-2-[3-(3,5-dichloro-benzyl)-3H-imidazol-4-yl]-ethylamino}-4-methyl-pentanoic acid]
disruption of ACE2-Spike interaction [3]: does not disrupt ACE2-Spike interaction

CCC(CC)COC(=O)[C@H](C)N[P@](=O)(OC[C@H]1O[C@@](C#N)(c2ccc3c(N)ncnn23)[C@H](O)[C@@H]1O)Oc1ccccc1 [Remdesivir]
Maximum Inhibition (%) (SARS-CoV-2 USA_WA1/2020): 100.27% | Concentration at Minimum % Viability (Vero E6 cells; African green monkey): 3750 nM | Concentration at Maximum % Viability (Vero E6 cells): 60 nM | CC50 (in vitro): > 30 µM | viability (in vitro; Maximum Viability (%)): 104% | viability (in vitro; Minimum Viability (%)): 97.5%

[Cl-].[Cl-].[Zn+2] [ZnCl2, Zinc Chloride]
exopeptidase activity of rhACE2 in the presence of ZnCl2 alone ([1]; 100μM to 100nM): increasing exopeptidase activity
